Patent publication US20240139236A1, “COPPER HISTIDINATE COMPOSITIONS AND USES THEREOF” (Cyprium Therapeutics, Inc., priority 2021, published 2024)
Marks after values point to notes of the source that are not given here.

Experiment: Single subcutaneous dose [14C]-copper histidinate pharmacokinetic study in healthy adult male subjects
Format: in vivo, human
Conditions: for Whole Blood:Serum Total Radioactivity Partitioning Ratio (Arithmetic Mean ± SD): n = 6; for Whole Blood:Serum Total Radioactivity Partitioning Ratio: 504 hour postdose, n = 1 (Subject 6)
From the text: The primary objective of this study was to quantitate total radioactivity (TRA) in whole blood, serum, and the eluted fractions of serum spiked with unlabeled copper histidinate (CuHis) from a size exclusion-high performance liquid chromatography (SEC-HPLC) column after a single subcutaneous (SC) administration of [^14C] CuHis in healthy adult male subjects. Further, the study was designed to determine the percentage of ^14C radioactivity associated with cellular components in whole blood over time (e.g., whole blood:serum partitioning concentration ratio).
To evaluate the safety and tolerability after a single SC administration of [^14C] CuHis in healthy adult male subjects. This was an open-label, single-dose, 1-period, PK study conducted at 1 study center in the USA. Six (6) healthy, adult male subjects were enrolled. Screening of subjects occurred within 28 days prior to dosing.
On Day 1, a single SC 3.0 mg (˜500 nCi) dose of [^14C]-CuHis was administered. Pharmacokinetic (PK) samples for determining TRA in whole blood and serum, and [^14C] CuHis in eluted fractions of serum spiked with unlabeled CuHis from an SEC-HPLC column were collected pre-dose and up to 168 hours post-dose (Subjects 1 to 5) or 504 hours post-dose (Subject 6).
A single dose of 3.0 mg (˜500 nCi) [^14C]-CuHis (equivalent to approximately 500 μg of elemental copper) for SC bolus injection was administered into the upper arm of each subject at Hour 0 on Day 1. Hour 0 corresponded to the start of the bolus SC administration on Day 1. Subjects were instructed not to rub the injection site(s).
Blood samples for determining TRA in whole blood and serum, and [^14C]-CuHis in eluted fractions of serum spiked with unlabeled CuHis from a SEC-HPLC column were collected predose and up to 168 hours postdose (Subjects 1 to 5) or up to 504 hours postdose (Subject 6).
TRA CuHis concentration equivalents in whole blood and serum were determined using accelerator mass spectrometry (AMS) at Pharmaron ABS, Inc. (Germantown, Maryland, USA). The lower limits of quantitation (LLOQ) for TRA CuHis concentration equivalents in whole blood and serum ranged from 0.711 to 0.770 ng eq CuHis/mL and 0.239 to 0.284 ng eq CuHis/mL in the different subjects, respectively.
[^14C]-CuHis concentrations in serum fractions from the SEC-HPLC column were determined using AMS at Pharmaron ABS, Inc. (Germantown, Maryland, USA). The LLOQ for [^14C]-CuHis concentrations in serum was 0.270 ng/mL.
Whole blood: serum TRA partitioning ratios were calculated at each postdose time point for each subject as the ratio between whole blood TRA CuHis concentration equivalents and serum TRA CuHis concentration equivalents. The following parameters were calculated for whole blood and serum TRA, and serum [^14C]-CuHis, when possible: AUC0-24, AUC0-last, AUC0-∞, AUC% extrap, Cmax, tmax, tlag, Kel, and t1/2. The AUC0-24 Ratio was calculated for serum [^14C]-CuHis versus serum TRA. CL/F and Vz/F were calculated for serum [^14C]-CuHis.
Whole blood and serum TRA CuHis concentration equivalents, serum [^14C]-CuHis concentrations, and whole blood:serum TRA partitioning ratios were listed and summarized by time point for all subjects in the PK population. Summary statistics, including sample size (n), arithmetic mean (Mean), standard deviation (SD), coefficient of variation (CV %), standard error of the mean (SEM), minimum, median, and maximum were calculated for the above data at each nominal time point.
Whole blood and serum TRA PK parameters, and serum [^14C]-CuHis PK parameters were listed for each subject and summarized for all subjects in the PK population. Summary statistics (n, Mean, SD, CV %, SEM, minimum, median, maximum, geometric mean [Geom Mean], and geometric CV % [Geom CV %]) were calculated for all PK parameters.

[1] = single SC 3.0 mg, arithmetic mean ± SD
[2] = single SC 3.0 mg, geometric mean (geometric CV%)
[3] = single SC 3.0 mg, median (minimum, maximum)
[4] = single SC 3.0 mg, median (minimum, maximum), listed as [^14C]-CuHis
[5] = single SC 3.0 mg, up to 168 h, Subject 6 excluded, geometric mean (geometric CV%)

- Whole Blood:Serum Total Radioactivity Partitioning Ratio (Arithmetic Mean ± SD) (0.25 hour postdose): 0.6165 ± 0.1072
- Whole Blood:Serum Total Radioactivity Partitioning Ratio (Arithmetic Mean ± SD) (0.5 hour postdose): 0.6410 ± 0.05811
- Whole Blood:Serum Total Radioactivity Partitioning Ratio (Arithmetic Mean ± SD) (0.75 hour postdose): 0.6426 ± 0.05966
- arithmetic mean serum CuHis concentration, peak (0.75 hours postdose): 63.47 ng/mL
- Whole Blood:Serum Total Radioactivity Partitioning Ratio (Arithmetic Mean ± SD) (1 hour postdose): 0.6888 ± 0.06107
- Whole Blood:Serum Total Radioactivity Partitioning Ratio (Arithmetic Mean ± SD) (1.5 hour postdose): 0.6728 ± 0.0542
- Whole Blood:Serum Total Radioactivity Partitioning Ratio (Arithmetic Mean ± SD) (2 hour postdose): 0.6761 ± 0.03446
- Whole Blood:Serum Total Radioactivity Partitioning Ratio (Arithmetic Mean ± SD) (4 hour postdose): 0.7010 ± 0.09398
- Whole Blood:Serum Total Radioactivity Partitioning Ratio (Arithmetic Mean ± SD) (8 hour postdose): 0.5856 ± 0.1175
- arithmetic mean serum TRA CuHis concentration equivalent, peak (8 hours postdose): 97.43 ng eq CuHis/mL
- Whole Blood:Serum Total Radioactivity Partitioning Ratio (Arithmetic Mean ± SD) (16 hour postdose): 0.7144 ± 0.1134
- Whole Blood:Serum Total Radioactivity Partitioning Ratio (Arithmetic Mean ± SD) (24 hour postdose): 0.6708 ± 0.08484
- Whole Blood:Serum Total Radioactivity Partitioning Ratio (Arithmetic Mean ± SD) (36 hour postdose): 0.7498 ± 0.04878
- Whole Blood:Serum Total Radioactivity Partitioning Ratio (Arithmetic Mean ± SD) (36 hour postdose, listed as [^14C]-CuHis): 0.7498
- Whole Blood:Serum Total Radioactivity Partitioning Ratio (Arithmetic Mean ± SD) (48 hour postdose): 0.8329 ± 0.09811
- Whole Blood:Serum Total Radioactivity Partitioning Ratio (Arithmetic Mean ± SD) (72 hour postdose): 1.209 ± 0.1925
- Whole Blood:Serum Total Radioactivity Partitioning Ratio (Arithmetic Mean ± SD) (96 hour postdose): 1.612 ± 0.3461
- Whole Blood:Serum Total Radioactivity Partitioning Ratio (Arithmetic Mean ± SD) (120 hour postdose): 1.853 ± 0.3512
- Whole Blood:Serum Total Radioactivity Partitioning Ratio (Arithmetic Mean ± SD) (144 hour postdose): 2.163 ± 0.3333
- Whole Blood:Serum Total Radioactivity Partitioning Ratio (Arithmetic Mean ± SD) (168 hour postdose): 2.392 ± 0.222
- Whole Blood:Serum Total Radioactivity Partitioning Ratio (Arithmetic Mean ± SD) (168 hour postdose, listed as [^14C]-CuHis): 2.392
- arithmetic mean whole blood TRA CuHis concentration equivalents, highest level (168 hours postdose): 100.9 ng eq CuHis/mL
- Whole Blood:Serum Total Radioactivity Partitioning Ratio: 2.160*
- Whole Blood:Serum Total Radioactivity Partitioning Ratio (listed as [^14C]-CuHis): 2.16
- serum TRA CuHis concentration equivalent (504 hours postdose, Subject 6): 30.7 ng eq CuHis/mL
- whole blood TRA CuHis concentration equivalent (504 hours postdose, Subject 6): 66.3 ng eq CuHis/mL
- exposure to TRA (AUC0-last) higher in whole blood than in serum (by 168 hours postdose): approximately 29%
- exposure to TRA (AUC0-24) lower in whole blood than in serum (first 24 hours postdose): approximately 34%
- exposure to TRA in the serum associated with [14C]-CuHis (first 24 hours postdose): Approximately 9%
- distribution phase half-life, serum [14C]-CuHis (initial rapid decrease after peak, estimated): 2 to 3 h
- peak exposure to TRA (Cmax), whole blood compared with serum (single SC 3.0 mg): similar
- AUC% extrap, serum [14C]-copper histidinate [1]: 12.37 ± 8.3964 [n = 5]^e %
- AUC% extrap, serum total radioactivity [1]: 58.34 ± 12.677 [n = 5]^c %
- CL/F, serum [14C]-copper histidinate [1]: 10.34 ± 1.6214 [n = 5]^e L/hr
- Kel, serum [14C]-copper histidinate [1]: 0.0166 ± 0.01512 [n =5]^e 1/hr
- Kel, serum total radioactivity [1]: 0.003278 ± 0.001588 [n = 5]^c 1/hr
- t1/2, serum [14C]-copper histidinate (terminal elimination phase) [1]: 74.842 ± 49.1558 [n = 5]^e hr
- t1/2, serum [14C]-copper histidinate (terminal elimination phase) (single SC 3.0 mg, arithmetic mean ± SD, listed as [^14C]-CuHis): ~75 h
- AUC0-24, serum [14C]-copper histidinate [2]: 185.6 (20.6) ng · hr/mL
- AUC0-24, serum total radioactivity [2]: 1993 (21.4) [n = 6] ng eq CuHis · hr/mL
- AUC0-24, whole blood total radioactivity [2]: 1315 (30.4) [n = 6] ng eq CuHis · hr/mL
- AUC0-24 Ratio, serum [14C]-CuHis versus serum total radioactivity [2]: 0.09317 (19.5) [n = 6]
- AUC0-last, serum [14C]-copper histidinate [2]: 249.3 (10.6) ng · hr/mL
- AUC0-∞, serum [14C]-copper histidinate [2]: 296.0 (15.3) ng · hr/mL
- Cmax, serum [14C]-copper histidinate [2]: 67.14 (35.9) ng/mL
- Cmax, serum total radioactivity [2]: 95.78 (24.3) [n = 6] ng eq CuHis/mL
- Cmax, whole blood total radioactivity [2]: 100.1 (14.8) [n = 6] ng eq CuHis/mL
- AUC0-24 Ratio, serum [14C]-CuHis versus serum total radioactivity (single SC 3.0 mg, geometric mean (geometric CV%), listed as [^14C]-CuHis): 0.09317
- tlag, serum [14C]-copper histidinate [3]: 0.00 (0.00, 0.00) [n = 6] hr
- tlag, serum total radioactivity [3]: 0.00 (0.00, 0.00) [n = 6] hr
- tlag, whole blood total radioactivity [3]: 0.00 (0.00, 0.00) [n = 6] hr
- tmax, serum [14C]-copper histidinate [3]: 0.747 (0.50, 0.76) hr
- tmax, serum total radioactivity [3]: 8.007 (7.99, 16.02) [n = 6] hr
- tmax, whole blood total radioactivity [3]: 168.006 (144.01, 168.03) [n = 6] hr
- tmax, serum [14C]-copper histidinate [4]: 0.75 h
- tmax, serum total radioactivity [4]: ~8 h
- tmax, whole blood total radioactivity [4]: ~168 h
Structure (SMILES): N[C@@H](Cc1c[nH]cn1)C(=O)O.N[C@@H](Cc1c[nH]cn1)C(=O)O.[Cu] [[^14C]-Copper Histidinate]
- AUC0-∞, serum total radioactivity (single SC 3.0 mg, Subject 6 excluded, geometric mean (geometric CV%)): 23390 (25.7) [n = 5]^c ng eq CuHis · hr/mL
- AUC0-last, serum total radioactivity [5]: 9390 (13.4) [n = 5]^c ng eq CuHis · hr/mL
- AUC0-last, whole blood total radioactivity [5]: 12130 (15.3) [n = 5]^c ng eq CuHis · hr/mL
